Values joined by “and” are separate entries in the source; they are usually repeats but may differ in a detail not shown here. Identical values can stand only once.
Columns and labels:
Sialidase [1] = biological target: T1, Sialidase (Clostridium perfringens, UniProt P10481); experiment: Apparent binding affinity at Clostridium perfringens neuraminidase by fluorimetry; conditions: read-out: Ki(app)
T1 sequence (P10481 whole entry): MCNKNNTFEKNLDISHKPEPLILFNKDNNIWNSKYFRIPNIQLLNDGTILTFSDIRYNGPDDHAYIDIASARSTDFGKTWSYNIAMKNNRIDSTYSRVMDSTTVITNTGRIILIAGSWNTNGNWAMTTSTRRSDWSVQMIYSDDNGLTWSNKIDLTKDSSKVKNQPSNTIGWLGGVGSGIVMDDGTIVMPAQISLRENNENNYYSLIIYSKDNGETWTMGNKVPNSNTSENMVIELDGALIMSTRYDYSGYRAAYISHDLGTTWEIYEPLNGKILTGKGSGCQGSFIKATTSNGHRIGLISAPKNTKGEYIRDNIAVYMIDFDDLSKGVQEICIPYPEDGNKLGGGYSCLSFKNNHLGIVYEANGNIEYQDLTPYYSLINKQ

Sialidase [2] = biological target: T1, Sialidase; experiment: Competitive inhibition of Clostridium perfringens neuraminidase by Lineweaver-Burke plot and Dixon plot
Sialidase [3] = biological target: T1, Sialidase; experiment: (§1) Inhibition of Clostridium perfringens neuraminidase by fluorimetry
[4] = biological target: T2, Sialidase (Clostridium perfringens) (UniProt P10481); experiment: as §1
T2 sequence (whole entry): T1 sequence (P10481 whole entry)

[5] = biological target: T2, Sialidase (Clostridium perfringens); experiment: Inhibition of Clostridium perfringens neuraminidase at 200 uM by fluorimetry

## C=CC(C)(C)c1c(O)cc2oc3c(CC=C(C)C)c(O)c(O)cc3c(=O)c2c1O [CUDRAXANTHONE L]
Sialidase [1]
  Ki: 568 nM
Sialidase [2]
  Ki: 138 nM
Sialidase [3]
  IC50: 228 nM
[4]
  Activity: Dose-dependent effect

## C=CC(C)(C)c1c(O)cc(O)c2c(=O)c3c(CC=C(C)C)c(O)c(O)cc3oc12 [CUDRATRICUSXANTHONE A]
Sialidase [1]
  Ki: 214 nM
Sialidase [2]
  Ki: 136 nM
Sialidase [3]
  IC50: 245 nM
[4]
  Activity: Dose-dependent effect

## C=CC(C)(C)c1c(O)cc(O)c2c(=O)c3cc(O)c4c(c3oc12)C=CC(C)(C)O4
[5]
  Activity: Dose-dependent effect
  inhibition: 30%

## O=c1cc(-c2ccc(O)cc2)oc2cc(O)cc(O)c12 [APIGENIN]
Sialidase [3]
  IC50: 17400 nM

## O=c1c(O)c(-c2ccc(O)c(O)c2)oc2cc(O)cc(O)c12 [QUERCETIN]
Sialidase [3]
  IC50: 2700 nM

## CC(C)=CCc1c(O)c(O)cc2c(=O)c3c(O)c4c(cc3oc12)OC(C)C4(C)C (centres undefined) [CUDRAXANTHONE M]
Sialidase [1]
  Ki: 510 nM
Sialidase [2]
  Ki: 98 nM
Sialidase [3]
  IC50: 186 nM
[4]
  Activity: Dose-dependent effect

## O=c1c2cc(O)c(O)cc2oc2cc(O)c([C@@H]3O[C@H](CO)[C@@H](O)[C@H](O)[C@H]3O)c(O)c12 [MANGIFERIN]
Sialidase [3]
  IC50: 16200 nM

## C=CC(C)(C)c1c2c(c(O)c3c(=O)c4ccc(O)c(O)c4oc13)C=CC(C)(C)O2 [MACLURAXANTHONE]
Sialidase [1]
  Ki: 477 nM
Sialidase [2]
  Ki: 103 nM
Sialidase [3]
  IC50: 186 nM
[4]
  Activity: Dose-dependent effect

## C=CC(C)(C)c1c(OC)cc(O)c2c(=O)c3c(CC=C(C)C)c(O)c(O)cc3oc12 [CUDRAXANTHONE D]
Sialidase [1]
  Ki: 436 nM and 2230 nM
Sialidase [2]
  Ki: 143 nM and 950 nM
Sialidase [3]
  IC50: 278 nM and 1270 nM
[4]
  Activity: Dose-dependent effect

## C=CC(C)(C)c1c(O)cc2oc3cc(O)c(O)c(CC=C(C)C)c3c(=O)c2c1O
Sialidase [1]
  Ki: 127 nM
Sialidase [2]
  Ki: 58 nM
Sialidase [3]
  IC50: 80 nM
[4]
  Activity: Dose-dependent effect

Reference: ChEMBL document CHEMBL1153970, “Characteristic of neuraminidase inhibitory xanthones from Cudrania tricuspidata” (Bioorg Med Chem, 2009)
